Measurements as given in PMC5218480 (PLoS ONE, 2017).

System: MV-4-11 cells
Test: Gene expression microarray analysis (Affymetrix PrimeView) and GSEA
Assay type: cell-based, human
Set-up: RFU PODN (11730768_x_at) / Fold change /veh PODN (11730768_x_at) / RFU LINC00158 (11744669_a_at) / Fold change /veh LINC00158 (11744669_a_at) / RFU DUSP10 (11751237_a_at) / Fold change /veh DUSP10 (11751237_a_at) / RFU ID3 (11757404_x_at) / Fold change /veh ID3 (11757404_x_at) / RFU PLEKHG5 (11737974_s_at) / Fold change /veh PLEKHG5 (11737974_s_at) / RFU LRRC4B (11730491_at) / Fold change /veh LRRC4B (11730491_at) / RFU GIMAP4 (11747438_a_at) / Fold change /veh GIMAP4 (11747438_a_at) / RFU KRT8 (11758183_x_at) / Fold change /veh KRT8 (11758183_x_at) / RFU CNN1 (11734310_a_at) / Fold change /veh CNN1 (11734310_a_at) / RFU VPS37D (11726825_at) / Fold change /veh VPS37D (11726825_at) / RFU C10orf10 (11716522_x_at) / Fold change /veh C10orf10 (11716522_x_at) / RFU KIR2DL2 /// KIR2DL4 /// KIR2DL5A /// KIR2DL5B /// KIR2DS1 /// KIR2DS2 /// KIR2DS3 /// KIR2DS4 /// KIR3DL3 /// KIR3DL3 /// KIR3DS1 (11738374_at) / Fold change /veh KIR2DL2 /// KIR2DL4 /// KIR2DL5A /// KIR2DL5B /// KIR2DS1 /// KIR2DS2 /// KIR2DS3 /// KIR2DS4 /// KIR3DL3 /// KIR3DL3 /// KIR3DS1 (11738374_at) / RFU C1QL1 (11718748_at) / Fold change /veh C1QL1 (11718748_at) / RFU TMPRSS4 (11747572_a_at) / Fold change /veh TMPRSS4 (11747572_a_at) / RFU HAMP (11756126_x_at) / Fold change /veh HAMP (11756126_x_at) / RFU RNFT2 (11725882_a_at) / Fold change /veh RNFT2 (11725882_a_at) / RFU NR4A2 (11747474_a_at) / Fold change /veh NR4A2 (11747474_a_at) / RFU ABCC12 (11746883_a_at) / Fold change /veh ABCC12 (11746883_a_at) / RFU TMEM136 (11760407_x_at) / Fold change /veh TMEM136 (11760407_x_at) / RFU CLDN22 /// WWC2 (11732394_at) / Fold change /veh CLDN22 /// WWC2 (11732394_at) / RFU HLA-DPB1 (11760878_x_at) / Fold change /veh HLA-DPB1 (11760878_x_at) / RFU SPINT1 (11716480_a_at) / Fold change /veh SPINT1 (11716480_a_at) / RFU GAP43 (11754022_s_at) / Fold change /veh GAP43 (11754022_s_at) / RFU A4GNT (11735810_at) / Fold change /veh A4GNT (11735810_at) / RFU PRB3 (11715151_x_at) / Fold change /veh PRB3 (11715151_x_at) / RFU TUBB4B (11761932_at) / Fold change /veh TUBB4B (11761932_at) / RFU CAPN14 (11732068_a_at) / Fold change /veh CAPN14 (11732068_a_at) / RFU TMCC2 (11721928_a_at) / Fold change /veh TMCC2 (11721928_a_at) / RFU IRGQ (11745062_a_at) / Fold change /veh IRGQ (11745062_a_at) / RFU FAM174B (11720279_a_at) / Fold change /veh FAM174B (11720279_a_at) / RFU TMPRSS4 (11748680_a_at) / Fold change /veh TMPRSS4 (11748680_a_at) / RFU FAM212B (11763350_a_at) / Fold change /veh FAM212B (11763350_a_at) / RFU PLEKHG5 (11743358_a_at) / Fold change /veh PLEKHG5 (11743358_a_at) / RFU ZSCAN30 (11745921_a_at) / Fold change /veh ZSCAN30 (11745921_a_at) / RFU CMKLR1 (11741424_a_at) / Fold change /veh CMKLR1 (11741424_a_at) / RFU LOC101060620 /// MAPK8IP1 (11723275_at) / Fold change /veh LOC101060620 /// MAPK8IP1 (11723275_at) / RFU SPTSSB (11747773_x_at) / Fold change /veh SPTSSB (11747773_x_at) / RFU PRSS12 (11739890_at) / Fold change /veh PRSS12 (11739890_at) / RFU BIN1 (11741810_x_at) / Fold change /veh BIN1 (11741810_x_at) / RFU WNT11 (11732464_a_at) / Fold change /veh WNT11 (11732464_a_at) / RFU C10orf10 (11716521_a_at) / Fold change /veh C10orf10 (11716521_a_at) / RFU C5orf56 (11738089_at) / Fold change /veh C5orf56 (11738089_at) / RFU CYB561 (11721691_x_at) / Fold change /veh CYB561 (11721691_x_at) / RFU ANKRD19P (11752326_a_at) / Fold change /veh ANKRD19P (11752326_a_at) / RFU OR2T12 /// OR2T33 /// OR2T8 (11738714_s_at) / Fold change /veh OR2T12 /// OR2T33 /// OR2T8 (11738714_s_at) / RFU VCAN (11748164_a_at) / Fold change /veh VCAN (11748164_a_at) / RFU JSRP1 (11732532_at) / Fold change /veh JSRP1 (11732532_at) / RFU KRTAP10-11 (11738290_x_at) / Fold change /veh KRTAP10-11 (11738290_x_at) / RFU MYO3A (11730013_a_at) / Fold change /veh MYO3A (11730013_a_at) / RFU EBF3 (11725865_a_at) / Fold change /veh EBF3 (11725865_a_at) / RFU CAMK2N1 (11719241_x_at) / Fold change /veh CAMK2N1 (11719241_x_at) / RFU C5orf56 (11738088_a_at) / Fold change /veh C5orf56 (11738088_a_at) / RFU OLFML3 (11715873_a_at) / Fold change /veh OLFML3 (11715873_a_at) / RFU LOC100653217 /// NTM (11731650_a_at) / Fold change /veh LOC100653217 /// NTM (11731650_a_at) / RFU MAPK11 (11762145_a_at) / Fold change /veh MAPK11 (11762145_a_at) / RFU FIZ1 (11724087_x_at) / Fold change /veh FIZ1 (11724087_x_at) / RFU OASL (11726364_x_at) / Fold change /veh OASL (11726364_x_at) / RFU SOX15 (11748057_x_at) / Fold change /veh SOX15 (11748057_x_at) / RFU CD79A (11719716_a_at) / Fold change /veh CD79A (11719716_a_at) / RFU HIST1H1D (11736915_at) / Fold change /veh HIST1H1D (11736915_at) / RFU CASKIN2 (11723855_a_at) / Fold change /veh CASKIN2 (11723855_a_at) / RFU LOC730098 (11760151_x_at) / Fold change /veh LOC730098 (11760151_x_at) / RFU OR4N2 (11742367_at) / Fold change /veh OR4N2 (11742367_at) / RFU PRRT2 (11749266_a_at) / Fold change /veh PRRT2 (11749266_a_at) / RFU SNX32 (11753110_a_at) / Fold change /veh SNX32 (11753110_a_at) / RFU CDHR5 (11726645_a_at) / Fold change /veh CDHR5 (11726645_a_at) / RFU RCAN1 (11760418_a_at) / Fold change /veh RCAN1 (11760418_a_at) / RFU FAM167A (11723789_a_at) / Fold change /veh FAM167A (11723789_a_at) / RFU FAM26E (11764081_at) / Fold change /veh FAM26E (11764081_at) / RFU ISYNA1 (11749810_s_at) / Fold change /veh ISYNA1 (11749810_s_at) / RFU ACY1 (11761880_at) / Fold change /veh ACY1 (11761880_at) / RFU 11764098_at / Fold change /veh 11764098_at / RFU SAMD14 (11745864_x_at) / Fold change /veh SAMD14 (11745864_x_at) / RFU NPB (11741838_a_at) / Fold change /veh NPB (11741838_a_at) / RFU TMPRSS6 (11731388_a_at) / Fold change /veh TMPRSS6 (11731388_a_at) / RFU KRTAP10-2 (11738614_at) / Fold change /veh KRTAP10-2 (11738614_at) / RFU ARHGAP8 /// PRR5-ARHGAP8 (11727945_x_at) / Fold change /veh ARHGAP8 /// PRR5-ARHGAP8 (11727945_x_at) / RFU KRTAP5-7 /// NADSYN1 (11734609_at) / Fold change /veh KRTAP5-7 /// NADSYN1 (11734609_at) / RFU RASL12 (11751679_a_at) / Fold change /veh RASL12 (11751679_a_at) / RFU CDKN2B (11736163_a_at) / Fold change /veh CDKN2B (11736163_a_at) / RFU PRF1 (11729649_at) / Fold change /veh PRF1 (11729649_at) / RFU, ZNF638 /// ZNF638-IT1 / Fold change vs veh, ZNF638 /// ZNF638-IT1 / RFU, PANK3 / Fold change vs veh, PANK3 / RFU, SH3YL1 / Fold change vs veh, SH3YL1 / RFU, ZEB2 / Fold change vs veh, ZEB2 / RFU, NRIP1 / Fold change vs veh, NRIP1 / RFU, PTTG1IP / Fold change vs veh, PTTG1IP / RFU, CAPN2 / Fold change vs veh, CAPN2 / RFU, MED14 / Fold change vs veh, MED14 / RFU, SNORA58 / Fold change vs veh, SNORA58 / RFU, C1orf63 / Fold change vs veh, C1orf63 / RFU, LRRFIP1 / Fold change vs veh, LRRFIP1 / RFU, NDUFAF7 / Fold change vs veh, NDUFAF7 / RFU, SLC12A2 / Fold change vs veh, SLC12A2 / RFU, IBTK / Fold change vs veh, IBTK / RFU, ESF1 / Fold change vs veh, ESF1 / Fold change vs veh, TMEM50B / RFU, TAOK1 / Fold change vs veh, TAOK1 / RFU, ACBD3 / Fold change vs veh, ACBD3 / RFU, TMA16 / Fold change vs veh, TMA16 / RFU, RWDD3 / Fold change vs veh, RWDD3 / RFU, BCAT1 / Fold change vs veh, BCAT1 / RFU, EDEM3 / Fold change vs veh, EDEM3 / RFU, TMEM33 / Fold change vs veh, TMEM33 / RFU, WDR75 / Fold change vs veh, WDR75 / RFU, AHCTF1 / Fold change vs veh, AHCTF1 / RFU, TFRC / Fold change vs veh, TFRC / RFU, ZDHHC17 / Fold change vs veh, ZDHHC17 / RFU, NOM1 / Fold change vs veh, NOM1 / RFU, ARL8B / Fold change vs veh, ARL8B / RFU, ZBTB11 / Fold change vs veh, ZBTB11 / RFU, TAMM41 / Fold change vs veh, TAMM41 / RFU, KIAA1704 /// LOC100996395 / Fold change vs veh, KIAA1704 /// LOC100996395 / RFU, ING1 / Fold change vs veh, ING1 / RFU, TRMT61B / Fold change vs veh, TRMT61B / RFU, FUBP3 / Fold change vs veh, FUBP3 / RFU, TP53 / Fold change vs veh, TP53 / RFU, TNKS2 / Fold change vs veh, TNKS2 / RFU, ZFP14 / Fold change vs veh, ZFP14 / RFU, ACTR2 / Fold change vs veh, ACTR2 / RFU, PPP3R1 / Fold change vs veh, PPP3R1 / RFU, PIK3R1 / Fold change vs veh, PIK3R1 / RFU, HNRNPA1 / Fold change vs veh, HNRNPA1 / RFU, RNF170 / Fold change vs veh, RNF170 / RFU, ZNF28 / Fold change vs veh, ZNF28 / RFU, RNGTT / Fold change vs veh, RNGTT / RFU, OGT / Fold change vs veh, OGT / RFU, BRD1 / Fold change vs veh, BRD1 / RFU, MARS / Fold change vs veh, MARS / RFU, ZNF655 / Fold change vs veh, ZNF655 / RFU, FAHD1 / Fold change vs veh, FAHD1 / RFU, BDP1 / Fold change vs veh, BDP1 / RFU, LRRCC1 / Fold change vs veh, LRRCC1 / RFU, ARID1A / Fold change vs veh, ARID1A / RFU, ZNF146 / Fold change vs veh, ZNF146 / RFU, ZNF330 / Fold change vs veh, ZNF330 / RFU, GPN3 / Fold change vs veh, GPN3 / RFU, C9orf123 / Fold change vs veh, C9orf123 / RFU, N4BP2L2 / Fold change vs veh, N4BP2L2 / RFU, ARFIP1 / Fold change vs veh, ARFIP1 / RFU, FAM179B / Fold change vs veh, FAM179B / RFU, BCL10 / Fold change vs veh, BCL10 / RFU, UHRF1BP1L / Fold change vs veh, UHRF1BP1L / RFU, BET1 / Fold change vs veh, BET1 / RFU, CNOT2 / Fold change vs veh, CNOT2 / RFU, ZNF268 / Fold change vs veh, ZNF268 / Fold change vs veh, ZNF507 / RFU, DGCR2 / Fold change vs veh, DGCR2 / RFU, WDSUB1 / Fold change vs veh, WDSUB1 / Fold change vs veh, HSP90B1 /// MIR3652 / RFU, ADSS / Fold change vs veh, ADSS / RFU, GK / Fold change vs veh, GK / RFU, ZNF148 / Fold change vs veh, ZNF148 / RFU, TAF9 / Fold change vs veh, TAF9 / RFU, SLC1A5 / Fold change vs veh, SLC1A5 / RFU, SLMO2 / Fold change vs veh, SLMO2 / RFU, ABCC4 / Fold change vs veh, ABCC4 / RFU, LOC101060439 /// RAP1B / Fold change vs veh, LOC101060439 /// RAP1B / RFU, RFX7 / Fold change vs veh, RFX7 / RFU, GTPBP10 / Fold change vs veh, GTPBP10 / RFU, CNEP1R1 / Fold change vs veh, CNEP1R1 / RFU, BIVM-ERCC5 /// ERCC5 / Fold change vs veh, BIVM-ERCC5 /// ERCC5 / RFU, ILF3 / Fold change vs veh, ILF3 / RFU 11762660_at / Fold change /veh 11762660_at / RFU VCAN (11757783_s_at) / Fold change /veh VCAN (11757783_s_at) / RFU DDX43 (11728927_at) / Fold change /veh DDX43 (11728927_at) / RFU KRT8 (11758188_x_at) / Fold change /veh KRT8 (11758188_x_at) / RFU NKD1 (11759106_at) / Fold change /veh NKD1 (11759106_at) / RFU SRD5A1 (11742802_a_at) / Fold change /veh SRD5A1 (11742802_a_at) / RFU TPSAB1 /// TPSB2 (11721975_s_at) / Fold change /veh TPSAB1 /// TPSB2 (11721975_s_at) / RFU GSTM3 (11746129_a_at) / Fold change /veh GSTM3 (11746129_a_at) / RFU IL23R (11737362_x_at) / Fold change /veh IL23R (11737362_x_at) / RFU TMEM51 (11727254_a_at) / Fold change /veh TMEM51 (11727254_a_at) / RFU PIWIL2 (11732686_x_at) / Fold change /veh PIWIL2 (11732686_x_at) / RFU ORM1 (11744905_x_at) / Fold change /veh ORM1 (11744905_x_at) / RFU CCDC152 (11743942_at) / Fold change /veh CCDC152 (11743942_at) / RFU ECM1 (11717891_a_at) / Fold change /veh ECM1 (11717891_a_at) / RFU IL23R (11748794_a_at) / Fold change /veh IL23R (11748794_a_at) / RFU TNFAIP8L3 (11732012_x_at) / Fold change /veh TNFAIP8L3 (11732012_x_at) / RFU MBOAT4 (11741988_at) / Fold change /veh MBOAT4 (11741988_at) / RFU 11764193_at / Fold change /veh 11764193_at / RFU TMEM53 (11763286_at) / Fold change /veh TMEM53 (11763286_at) / RFU MAGEB2 (11727129_at) / Fold change /veh MAGEB2 (11727129_at) / RFU TMEM200A (11744735_a_at) / Fold change /veh TMEM200A (11744735_a_at) / RFU CCDC152 (11751479_a_at) / Fold change /veh CCDC152 (11751479_a_at) / RFU FAM211A (11726209_a_at) / Fold change /veh FAM211A (11726209_a_at) / RFU RGS16 (11746705_a_at) / Fold change /veh RGS16 (11746705_a_at) / RFU VCAN (11755009_s_at) / Fold change /veh VCAN (11755009_s_at) / RFU RHOB (11743442_s_at) / Fold change /veh RHOB (11743442_s_at) / RFU RGS16 (11720943_a_at) / Fold change /veh RGS16 (11720943_a_at) / RFU RGS16 (11720944_at) / Fold change /veh RGS16 (11720944_at) / RFU, VPS4B / Fold change vs veh, VPS4B / RFU, CREB1 / Fold change vs veh, CREB1 / RFU, DNAJC13 / Fold change vs veh, DNAJC13 / RFU, GNAQ / Fold change vs veh, GNAQ / RFU, CDK5R1 / Fold change vs veh, CDK5R1 / RFU, ZRANB3 / Fold change vs veh, ZRANB3 / RFU, CUL4A / Fold change vs veh, CUL4A / RFU, CCNY / Fold change vs veh, CCNY / RFU, UFL1 / Fold change vs veh, UFL1 / RFU, COG3 / Fold change vs veh, COG3 / RFU, DIAPH2 / Fold change vs veh, DIAPH2 / RFU, SKA2 / Fold change vs veh, SKA2 / RFU, AFF3 / Fold change vs veh, AFF3 / RFU, LMF1 / Fold change vs veh, LMF1 / RFU, IPO11 / Fold change vs veh, IPO11 / RFU, DFFB / Fold change vs veh, DFFB / RFU, FOXP1 / Fold change vs veh, FOXP1 / RFU, CARD8 / Fold change vs veh, CARD8 / RFU, STRN3 / Fold change vs veh, STRN3 / RFU, ADK / Fold change vs veh, ADK / RFU, RASSF2 / Fold change vs veh, RASSF2 / RFU, WIPF1 / Fold change vs veh, WIPF1 / RFU, LARP1B / Fold change vs veh, LARP1B / RFU, RASA1 / Fold change vs veh, RASA1 / RFU, RB1 / Fold change vs veh, RB1 / RFU, PPFIA1 / Fold change vs veh, PPFIA1 / RFU, MAT2A / Fold change vs veh, MAT2A / RFU, CCT5 / Fold change vs veh, CCT5 / RFU, WDR92 / Fold change vs veh, WDR92 / RFU, CUX1 / Fold change vs veh, CUX1 / RFU, TTC7A / Fold change vs veh, TTC7A / RFU, TMEM135 / Fold change vs veh, TMEM135 / RFU, DEPTOR / Fold change vs veh, DEPTOR / RFU, CPM / Fold change vs veh, CPM / RFU, DNAJB6 / Fold change vs veh, DNAJB6 / RFU, CACNA2D3 / Fold change vs veh, CACNA2D3 / RFU, DTX4 / Fold change vs veh, DTX4 / RFU, TFCP2 / Fold change vs veh, TFCP2 / RFU, GMCL1 /// GMCL1P1 / Fold change vs veh, GMCL1 /// GMCL1P1 / RFU, AEBP2 / Fold change vs veh, AEBP2 / RFU, SNHG1 /// SNORD22 /// SNORD25 /// SNORD26 /// SNORD27 /// SNORD28 /// SNORD29 /// SNORD31 / Fold change vs veh, SNHG1 /// SNORD22 /// SNORD25 /// SNORD26 /// SNORD27 /// SNORD28 /// SNORD29 /// SNORD31 / Fold change (Aza/veh), C12orf56 (ProbeSet 11735607_a_at) / Fold change (ACY-1035/veh), C12orf56 (ProbeSet 11735607_a_at) / Fold change (Aza/veh), FGFR1OP (ProbeSet 11751329_s_at) / Fold change (ACY-1035/veh), FGFR1OP (ProbeSet 11751329_s_at) / Fold change (Aza/veh), VPS36 (ProbeSet 11739960_a_at) / Fold change (ACY-1035/veh), VPS36 (ProbeSet 11739960_a_at) / RFU SYPL1 (11715823_x_at) / Fold change /veh SYPL1 (11715823_x_at) / RFU IGFBP7 (11715501_s_at) / Fold change /veh IGFBP7 (11715501_s_at) / RFU REEP3 (11722064_at) / Fold change /veh REEP3 (11722064_at) / RFU IGLL1 (11728026_x_at) / Fold change /veh IGLL1 (11728026_x_at): dose or concentration left out as unconfirmed
Settings: ProbeSet 11728443_a_at; LIST B

Structure (SMILES): Nc1ccc(-c2cccs2)cc1NC(=O)c1ccc2c(c1)cc(C1CC1)n2CCN1CCOCC1 [ACY-1035]
- Fold change vs veh, TAOK1: 0.89
